Measured values published in ChEMBL document CHEMBL4261619, “Sentulic acid isolated from Sandoricum koetjape Merr attenuates lipopolysaccharide and interferon gamma co-stimulated nitric oxide production in murine macrophage RAW264 cells” (Bioorg Med Chem Lett, 2018).
Activity calls are given as the source filed them. No cut-off for these calls is given here.

What was measured:
Assay type in all cases: cell-based
[1] = molecular target: T1, Toll-like receptor 4 (Mus musculus) (UniProt Q9QUK6); assay: Inhibition of LPS binding to TLR4 in IFNgamma-stimulated mouse RAW264.7 cells assessed as suppression of IFNgamma mRNA expression at 100 uM by qRT-PCR analysis
T1 sequence (whole entry): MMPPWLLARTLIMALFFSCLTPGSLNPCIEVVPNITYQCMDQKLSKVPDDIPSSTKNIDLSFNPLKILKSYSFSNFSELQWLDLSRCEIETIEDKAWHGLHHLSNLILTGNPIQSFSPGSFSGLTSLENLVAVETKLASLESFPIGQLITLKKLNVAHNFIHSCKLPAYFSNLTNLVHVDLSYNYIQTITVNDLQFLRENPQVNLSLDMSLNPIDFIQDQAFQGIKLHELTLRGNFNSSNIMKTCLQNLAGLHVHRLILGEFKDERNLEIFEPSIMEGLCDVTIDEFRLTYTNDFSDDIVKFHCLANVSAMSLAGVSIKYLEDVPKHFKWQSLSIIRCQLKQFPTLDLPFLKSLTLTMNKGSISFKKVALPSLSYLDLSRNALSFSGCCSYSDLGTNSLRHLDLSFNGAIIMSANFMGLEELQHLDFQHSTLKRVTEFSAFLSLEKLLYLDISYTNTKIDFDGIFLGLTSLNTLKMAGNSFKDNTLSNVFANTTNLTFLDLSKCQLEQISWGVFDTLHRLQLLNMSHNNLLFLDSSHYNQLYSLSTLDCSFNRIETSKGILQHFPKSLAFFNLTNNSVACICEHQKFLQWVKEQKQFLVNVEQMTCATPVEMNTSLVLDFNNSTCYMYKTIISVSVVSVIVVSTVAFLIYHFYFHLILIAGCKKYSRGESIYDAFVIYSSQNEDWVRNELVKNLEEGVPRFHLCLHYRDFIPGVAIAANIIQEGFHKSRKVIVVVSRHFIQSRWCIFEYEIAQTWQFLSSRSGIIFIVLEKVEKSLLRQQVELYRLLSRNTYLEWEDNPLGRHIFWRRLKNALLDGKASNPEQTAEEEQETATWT

[2] = molecular target: T1, Toll-like receptor 4 (Mus musculus); assay: Inhibition of LPS binding to TLR4 in IFNgamma-stimulated mouse RAW264.7 cells assessed as effect on ratio of phosphorylated ERK to total ERK at 100 uM measured after 15 mins by Western blot analysis relative to beta-actin (reference value: 0.8)
[3] = molecular target: T1, Toll-like receptor 4 (Mus musculus); assay: Inhibition of LPS binding to TLR4 in IFNgamma-stimulated mouse RAW264.7 cells assessed as reduction in iNOS expression at 100 uM by Western blot analysis
[4] = molecular target: T1, Toll-like receptor 4 (Mus musculus); assay: Inhibition of LPS binding to TLR4 in IFNgamma-stimulated mouse RAW264.7 cells assessed as effect on ratio of phosphorylated p38 to total p38 at 100 uM measured after 120 mins by Western blot analysis relative to beta-actin (reference value: 2.2)
[5] = molecular target: T1, Toll-like receptor 4 (Mus musculus); assay: Inhibition of LPS binding to TLR4 in IFNgamma-stimulated mouse RAW264.7 cells assessed as effect on ratio of phosphorylated JNK to total JNK at 100 uM measured after 15 mins by Western blot analysis relative to beta-actin (reference value: 2)
[6] = molecular target: T1, Toll-like receptor 4 (Mus musculus); assay: Inhibition of LPS binding to TLR4 in IFNgamma-stimulated mouse RAW264.7 cells assessed as effect on ratio of phosphorylated AKT to total AKT at 100 uM measured after 15 mins by Western blot analysis relative to beta-actin (reference value: 1.2)
[7] = molecular target: T1, Toll-like receptor 4 (Mus musculus); assay: Inhibition of LPS binding to TLR4 in IFNgamma-stimulated mouse RAW264.7 cells assessed as suppression of IL-12 mRNA expression at 100 uM by qRT-PCR analysis
[8] = molecular target: T1, Toll-like receptor 4 (Mus musculus); assay: Inhibition of LPS binding to TLR4 in IFNgamma-stimulated mouse RAW264.7 cells assessed as effect on ratio of phosphorylated TAK1 to total TAK1 at 100 uM measured after 60 mins by Western blot analysis relative to beta-actin (reference value: 3.1)
[9] = molecular target: T1, Toll-like receptor 4 (Mus musculus); assay: Inhibition of LPS binding to TLR4 in IFNgamma-stimulated mouse RAW264.7 cells assessed as effect on ratio of phosphorylated JNK to total JNK at 100 uM measured after 120 mins by Western blot analysis relative to beta-actin (reference value: 1)
[10] = molecular target: T1, Toll-like receptor 4 (Mus musculus); assay: Inhibition of LPS binding to TLR4 in IFNgamma-stimulated mouse RAW264.7 cells assessed as effect on ratio of phosphorylated NFkappaB to total NFkappaB at 100 uM measured after 60 mins by Western blot analysis relative to beta-actin (reference value: 1)
[11] = molecular target: T1, Toll-like receptor 4 (Mus musculus); assay: Inhibition of LPS binding to TLR4 in IFNgamma-stimulated mouse RAW264.7 cells assessed as suppression of iNOS mRNA expression at 100 uM by qRT-PCR analysis
[12] = molecular target: T1, Toll-like receptor 4 (Mus musculus); assay: Inhibition of LPS binding to TLR4 in IFNgamma-stimulated mouse RAW264.7 cells assessed as effect on ratio of phosphorylated p38 to total p38 at 100 uM measured after 30 mins by Western blot analysis relative to beta-actin (reference value: 4.8)
RAW264.7 [13] = assay: Inhibition of IFNgamma binding to IFNGR in LPS-stimulated mouse RAW264.7 cells assessed as effect on ratio of phosphorylated Stat1 to total Stat1 at 100 uM measured after 30 mins by Western blot analysis relative to beta-actin (reference value: 1.9)
[14] = molecular target: T1, Toll-like receptor 4 (Mus musculus); assay: Inhibition of LPS binding to TLR4 in IFNgamma-stimulated mouse RAW264.7 cells assessed as suppression of NFkappaB nuclear translocation
[15] = molecular target: T1, Toll-like receptor 4 (Mus musculus); assay: Inhibition of LPS binding to TLR4 in IFNgamma-stimulated mouse RAW264.7 cells assessed as reduction in nitric oxide production pretreated for 2 hrs followed by LPS/IFNgamma stimulation and measured after 24 hrs
[16] = molecular target: T1, Toll-like receptor 4 (Mus musculus); assay: Inhibition of LPS binding to TLR4 in IFNgamma-stimulated mouse RAW264.7 cells assessed as effect on ratio of phosphorylated TAK1 to total TAK1 at 100 uM measured after 15 mins by Western blot analysis relative to beta-actin (reference value: 1.3)
[17] = molecular target: T1, Toll-like receptor 4 (Mus musculus); assay: Inhibition of LPS binding to TLR4 in IFNgamma-stimulated mouse RAW264.7 cells assessed as effect on ratio of phosphorylated JNK to total JNK at 100 uM measured after 60 mins by Western blot analysis relative to beta-actin (reference value: 1.4)
RAW264.7 [18] = assay: Inhibition of IFNgamma binding to IFNGR in LPS-stimulated mouse RAW264.7 cells assessed as effect on ratio of phosphorylated Stat1 to total Stat1 at 100 uM measured after 120 mins by Western blot analysis relative to beta-actin (reference value: 4.1)
[19] = molecular target: T1, Toll-like receptor 4 (Mus musculus); assay: Inhibition of LPS binding to TLR4 in IFNgamma-stimulated mouse RAW264.7 cells assessed as effect on ratio of phosphorylated AKT to total AKT at 100 uM measured after 30 mins by Western blot analysis relative to beta-actin (reference value: 1.4)

inhibition [1]: Active | fold change (FC) [2]: 0.8 | inhibition [3]: Active | fold change (FC) [4]: 1.3 | fold change (FC) [5]: 1 | fold change (FC) [6]: 1 | inhibition [7]: Active | fold change (FC) [8]: 1 | fold change (FC) [9]: 1.1 | fold change (FC) [10]: 1 | inhibition [11]: Active | fold change (FC) [12]: 4 | inhibition [14]: Active | inhibition [15]: Dose-dependent effect | fold change (FC) [16]: 1 | fold change (FC) [17]: 1.1 | fold change (FC) [19]: 1.2
SMILES: C=C(C)[C@@H]1CC[C@]2(C)[C@H](CC=C3[C@@H]4CC(C)(C)CC[C@]4(C)CC[C@]32C(=O)O)[C@@]1(C)CCC(=O)O
fold change (FC) (RAW264.7 [13]): 1.2 | fold change (FC) (RAW264.7 [18]): 1.6
